pIC50, pKi: −log10 of the molar value. Counter-ions that a name gives are not always drawn.

One data set addresses NR1/NR2A NMDA receptor (Homo sapiens, UniProt Q05586+Q12879). The experiment in a line: Inhibition of NMDA receptor NR1/NR2A function. It counts as cell-based.
Data set [1] can be described thus: Metabolic de-alkylation to homospermidine in treated cells. It counts as in vitro ADME. The following applies: cells treated with compound. An excerpt: N-Alkylpolyamines can be broken down into their de-alkylated components by cellular metabolic pathways. For example, a N-alkyl-4,4-triamine ([…]2, where R is alkyl) can be converted into homospermidine, H2N(CH2)4NH(CH2)4NH2.

For a further data set, the system named is CHO-MG cells. The experiment in a line: Cytotoxicity in CHO-MG cells (polyamine-transport deficient). It counts as cell-based, Chinese hamster. The following applies: Cricetulus griseus, polyamine-transport deficient line, read-out: CHO-MG IC50.
The test system of the next data set is CHO cells. The experiment in a line: Cytotoxicity in CHO cells (active polyamine transporter). It counts as cell-based, Chinese hamster. The following applies: for pIC50: Cricetulus griseus, CHO, active polyamine transporter, read-out: CHO IC50; for CHO-MG/CHO IC50 ratio: selectivity for cells with active polyamine transporter.
The test system of the next data set is L1210 cells. The experiment in a line: Cytotoxicity in L1210 cells. The following applies: Mus musculus; L1210 cells, no DFMO; read-out: L1210 IC50. It counts as cell-based.
A further data set relates to L1210 cells + DFMO. The experiment in a line: Cytotoxicity in L1210 cells pretreated with DFMO. It counts as cell-based, mouse. The following applies: for pIC50: Mus musculus, L1210 cells pretreated with DFMO, read-out: L1210 + DFMO IC50; for L1210/(L1210 + DFMO) IC50 ratio: fold more toxic in the presence of DFMO.
In the next data set the test system is polyamine transporter. The experiment in a line: Ki, affinity for the polyamine transporter in L1210 cells. The class given is binding, mouse. The procedure:
Biological Evaluation. Three cell lines were chosen for bioassay. L1210 (mouse leukemia) cells were selected for comparison with the published IC50 and Ki values determined for a variety of polyamine substrates. In this regard both Ki and IC50 values were measured in this line for comparison purposes. Chinese hamster ovary (CHO) cells were chosen along with a mutant cell line (CHO-MG) in order to comment on polyamine transporter affinity and cell selectivity. The CHO-MG cell line is polyamine-transport deficient and was isolated after chronic selection for growth resistance to methylglyoxalbis (guanylhydrazone). For the purposes of this study, the CHO-MG cell line represents cells with limited polyamine transport activity. In contrast, the parent CHO cell line illustrates cell types with active polyamine transport. Comparison of efficacy in these two lines provided an important screen to detect conjugate delivery via the polyamine transporter, PAT. For example, a conjugate with high utilization of the transporter would be very toxic to CHO cells, but less so to CHO-MG cells. Therefore, IC50 determination in these two CHO lines provided a relative ranking of delivery via the PAT.

Sequence of NR1/NR2A NMDA receptor (Q12879 23-1464, other chains not shown): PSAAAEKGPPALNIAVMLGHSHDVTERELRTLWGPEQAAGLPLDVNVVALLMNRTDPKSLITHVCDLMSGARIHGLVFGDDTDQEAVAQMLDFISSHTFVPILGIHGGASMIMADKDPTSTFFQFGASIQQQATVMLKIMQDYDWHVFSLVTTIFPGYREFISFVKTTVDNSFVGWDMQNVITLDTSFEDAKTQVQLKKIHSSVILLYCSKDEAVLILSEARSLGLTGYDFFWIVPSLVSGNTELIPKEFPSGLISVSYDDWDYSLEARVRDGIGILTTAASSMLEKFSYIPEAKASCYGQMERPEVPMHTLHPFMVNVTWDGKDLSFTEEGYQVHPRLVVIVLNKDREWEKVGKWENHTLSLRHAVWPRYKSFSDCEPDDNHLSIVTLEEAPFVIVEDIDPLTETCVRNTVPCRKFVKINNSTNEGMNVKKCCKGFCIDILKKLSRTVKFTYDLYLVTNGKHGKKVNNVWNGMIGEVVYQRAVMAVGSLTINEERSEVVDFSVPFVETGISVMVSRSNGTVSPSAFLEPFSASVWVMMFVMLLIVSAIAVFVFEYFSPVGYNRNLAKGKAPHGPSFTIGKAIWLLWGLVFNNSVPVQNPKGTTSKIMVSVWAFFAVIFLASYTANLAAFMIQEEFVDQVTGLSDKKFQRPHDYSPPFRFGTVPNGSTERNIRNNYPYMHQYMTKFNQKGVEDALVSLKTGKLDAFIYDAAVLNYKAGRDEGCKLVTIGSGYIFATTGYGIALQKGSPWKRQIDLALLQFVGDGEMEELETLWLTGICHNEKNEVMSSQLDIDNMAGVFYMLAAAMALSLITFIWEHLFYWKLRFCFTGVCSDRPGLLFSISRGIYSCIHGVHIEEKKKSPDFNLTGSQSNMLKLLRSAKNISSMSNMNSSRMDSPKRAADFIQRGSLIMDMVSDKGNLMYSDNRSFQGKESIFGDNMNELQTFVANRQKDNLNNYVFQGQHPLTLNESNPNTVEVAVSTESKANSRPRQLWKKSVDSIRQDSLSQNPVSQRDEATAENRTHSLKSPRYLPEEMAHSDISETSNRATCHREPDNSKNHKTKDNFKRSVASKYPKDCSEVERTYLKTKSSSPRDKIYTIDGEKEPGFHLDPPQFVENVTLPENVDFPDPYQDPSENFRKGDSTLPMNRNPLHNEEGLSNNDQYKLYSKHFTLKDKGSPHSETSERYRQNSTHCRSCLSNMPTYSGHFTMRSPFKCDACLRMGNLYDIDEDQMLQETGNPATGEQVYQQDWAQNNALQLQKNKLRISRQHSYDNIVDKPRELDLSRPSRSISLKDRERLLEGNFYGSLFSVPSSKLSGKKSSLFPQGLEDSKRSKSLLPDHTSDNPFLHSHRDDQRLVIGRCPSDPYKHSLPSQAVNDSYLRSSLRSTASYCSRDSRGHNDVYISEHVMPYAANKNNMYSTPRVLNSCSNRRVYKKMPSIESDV

Turning to `c1ccc2cc3ccccc3cc2c1` [Anthracene], at NR1/NR2A NMDA receptor, the “IC50 for NR1/NR2A” value is reported as “no effect” and the “NMDA receptor (NR1A/NR2A) function at the highest dose” value is reported as “greater than 85%”.

A word on the pIC50: it is −log10 of the IC50, conventionally taken in molar units. What is called pKi is the Ki on a negative log10 scale, so that one unit is a factor of ten. Regarding `Cl.Cl.Cl.NCCCCN(CCCCN)Cc1c2ccccc2cc2ccccc12` [Compound 8e, N-(4-Amino-butyl)-N-anthracen-9-ylmethyl-butane-1,4-diamine, trihydrochloride], in data set [1], the “formation of homospermidine in treated cells (de-alkylation)” value is listed as “did not form homospermidine”. The pIC50 in the data set on CHO-MG cells was 4.18; with CHO cells, 6.35; in the data set on L1210 cells, 6.52; with L1210 cells + DFMO it was 6.82. Also, the “CHO-MG/CHO IC50 ratio” value in the data set with CHO cells (trihydrochloride) came to 148. This molecule showed a negative logarithm of the Ki (pKi) in the data set with polyamine transporter of 5.74.

For `Cl.Cl.NCCCCCCCCNCc1c2ccccc2cc2ccccc12` [Compound 32, N^1-Anthracen-9-ylmethyl-octane-1,8-diamine Dihydrochloride], the negative logarithm of the IC50 (pIC50) in the data set with CHO-MG cells is 5.31; in the data set with CHO cells, 5.31; in the data set on L1210 cells, 5.52; with L1210 cells + DFMO it was 5.34. Besides, the “CHO-MG/CHO IC50 ratio” value in the data set on CHO cells came to 1. In addition, the “L1210/(L1210 + DFMO) IC50 ratio” value with L1210 cells + DFMO is on record as 0.7. The same molecule gave a negative logarithm of the Ki (pKi) with polyamine transporter of 4.88.

Take `Cl.Cl.NCCOCCOCCNCc1c2ccccc2cc2ccccc12` [Compound 33, 2-(2-{2-[(Anthracen-9-ylmethyl)-amino]-ethoxy}-ethoxy)-ethylamine Dihydrochloride]: the negative logarithm of the IC50 (pIC50) with CHO-MG cells is 4.80; in the data set on CHO cells it was 4.90; with L1210 cells, 4.95; in the data set on L1210 cells + DFMO, 4.77. Further, the “CHO-MG/CHO IC50 ratio” value with CHO cells came to 1.3. In the data set on L1210 cells + DFMO, the “L1210/(L1210 + DFMO) IC50 ratio” value is 0.7. This molecule gave a negative logarithm of the Ki (pKi) in the data set with polyamine transporter of 4.05.

As for `Cl.Cl.NCCCCNCc1c2ccccc2cc2ccccc12` [Compound 34, N^1-Anthracen-9-ylmethyl-butane-1,4-diamine Dihydrochloride], the pIC50 in the data set with CHO-MG cells was 5.12; with CHO cells it was 5.11; in the data set with L1210 cells, 5.20; in the data set with L1210 cells + DFMO, 5.01. Further, in the data set with CHO cells, the “CHO-MG/CHO IC50 ratio” value is 1. For the same molecule, the “L1210/(L1210 + DFMO) IC50 ratio” value with L1210 cells + DFMO was determined as 0.7. The molecule also gave a pKi in the data set on polyamine transporter of 4.49.

Take `CCCCNCc1c2ccccc2cc2ccccc12` [Compound 35, N^1-Anthracen-9-ylmethyl-butylamine Monohydrochloride]: the negative logarithm of the IC50 (pIC50) in the data set with CHO-MG cells was 4.95; in the data set on CHO cells, 4.98; in the data set with L1210 cells, 4.84; in the data set on L1210 cells + DFMO it was 4.66. In addition, the “CHO-MG/CHO IC50 ratio” value in the data set on CHO cells worked out at 1.1. In the data set on L1210 cells + DFMO, the “L1210/(L1210 + DFMO) IC50 ratio” value stood at 0.7. For the same molecule, the pKi with polyamine transporter was 4.21.

`NCCCNCCCCNCCCN` [Spermine] had a negative logarithm of the IC50 (pIC50) against NR1/NR2A NMDA receptor of 3.28.

The record behind these values is patent US7728040B1, “Polyamine conjugates as selective NMDA inhibitors and anti-cancer drugs” (University of Central Florids Research Foundation, Inc., priority 2002, dated 2010).
